Reference: patent US7776790B2 (Platte Chemical Co., priority 2001, dated 2010)

Columns and labels:
[1] = pKa of the acid herbicide in the formulation, measured; assay type: physicochemical; conditions: 2,4-D acid in PCC-1133; glyphosate acid in PCC-1168
[2] = per approximately 100 grams of an aqueous solution (one weight percent); depending on temperature and pH; cited from earlier work

SMILES	pKa [1]	solubility in water or acidic water [2]
O=C(O)CNCP(=O)(O)O [glyphosate acid, N-(phosphonomethyl)glycine]	~2.5	approximately 1 gram
O=C(O)COc1ccc(Cl)cc1Cl [2,4-D acid, 2,4-dichlorophenoxy acetic acid]	2.87	–
